Assay results published in the supplement of paper PMC10307832.

Legend:
Assay in all cases: relative viability (nuclei count vs DMSO), 5 days (fraction); higher = more cells survive
[1] = compound: CS(=O)(=O)c1ccc(C(=O)Nc2ccc(Cl)c(-c3ccccn3)c2)c(Cl)c1 [Vismodegib] + CC(=O)c1c(C)c2cnc(Nc3ccc(N4CCNCC4)cn3)nc2n(C2CCCC2)c1=O [Palbociclib] (partner 0.5 µM)
Outline: (§1)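 Medians of duplicate plates are given as relative viability. That measure is the nuclei count in treated wells divided by the count in vehicle wells. Counts were taken on 4× images of lung cancer cell lines in 1536-well plates, 5 days after pin-tool dosing the day after seeding with one drug alone or a fixed anchor-drug dose plus five library-drug doses (not always all listed) in √10 steps.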

[2] = compound: CS(=O)(=O)c1ccc(-c2cnc(N)c(C(=O)Nc3ccccc3)n2)cc1 [VE-821] + Cc1cc(Nc2cc(N3CCN(C)CC3)nc(Sc3ccc(NC(=O)C4CC4)cc3)n2)n[nH]1 [Tozasertib] (partner 0.1 µM)
Outline: as §1

[3] = compound: CS(=O)(=O)c1ccc(-c2cnc(N)c(C(=O)Nc3ccccc3)n2)cc1 [VE-821] + O=C(c1cc(Cc2n[nH]c(=O)c3ccccc23)ccc1F)N1CCN(C(=O)C2CC2)CC1 [Olaparib] (partner 8 µM)
Outline: as §1

[4] = compound: N#CC[C@H](C1CCCC1)n1cc(-c2ncnc3[nH]ccc23)cn1 [Ruxolitinib] + CC1(C)CCC(c2ccc(Cl)cc2)=C(CN2CCN(c3ccc(C(=O)NS(=O)(=O)c4ccc(N[C@H](CCN5CCOCC5)CSc5ccccc5)c(S(=O)(=O)C(F)(F)F)c4)cc3)CC2)C1 [Navitoclax] (partner 0.5 µM)
Outline: as §1

For UMC-11, the relative viability ([1]; first compound 0.08 µM) was 0.343, the relative viability ([1]; first compound 0.253 µM) was 0.346 and the relative viability ([1]; first compound 0.8 µM) was 0.298. For the same cell line, the relative viability ([1]; first compound 2.53 µM) was 0.351, the relative viability ([1]; first compound 8 µM) was 0.344 and the relative viability ([2]; first compound 0.08 µM) was 0.203. For the same cell line, the relative viability ([2]; first compound 0.253 µM) was 0.195, the relative viability ([2]; first compound 0.8 µM) was 0.223 and the relative viability ([2]; first compound 2.53 µM) was 0.2. The relative viability ([2]; first compound 8 µM) was 0.203, the relative viability ([3]; first compound 0.08 µM) was 0.82 and the relative viability ([3]; first compound 0.253 µM) was 0.429. It also gave a relative viability ([3]; first compound 0.8 µM) of 0.374, a relative viability ([3]; first compound 2.53 µM) of 0.274 and a relative viability ([3]; first compound 8 µM) of 0.208. It also gave a relative viability ([4]; first compound 0.08 µM) of 0.3, a relative viability ([4]; first compound 0.253 µM) of 0.302 and a relative viability ([4]; first compound 0.8 µM) of 0.388. For the same cell line, the relative viability ([4]; first compound 2.53 µM) was 0.352 and the relative viability ([4]; first compound 8 µM) was 0.288.
